Assay results taken from patent US20230339851A1, “CXCR6 SULFONAMIDE COMPOUNDS” (CHEMOCENTRYX, INC., priority 2022, published 2023).

Biological target: T1, human CXCR6 (Homo sapiens, UniProt O00574)
T1 construct: expressed in transfected cells
Test: Radioligand Binding Assay (125I-CXCL16 displacement)
Details: L1.2 cells stably transfected with human CXCR6 cDNA, 0.1 nM 125I-CXCL16, 4° C., three-hour incubation; read-out: Potency (IC50)
Method in brief: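 Displacement of 0.1 nM 125I-CXCL16 from human CXCR6 stably expressed in L1.2 cells was measured after a 3 h, 4 °C incubation in HBSS with 0.1% BSA. Filter-bound cpm were counted, and IC50 values came from a 3-parameter nonlinear fit.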

T1 sequence (O00574 whole entry): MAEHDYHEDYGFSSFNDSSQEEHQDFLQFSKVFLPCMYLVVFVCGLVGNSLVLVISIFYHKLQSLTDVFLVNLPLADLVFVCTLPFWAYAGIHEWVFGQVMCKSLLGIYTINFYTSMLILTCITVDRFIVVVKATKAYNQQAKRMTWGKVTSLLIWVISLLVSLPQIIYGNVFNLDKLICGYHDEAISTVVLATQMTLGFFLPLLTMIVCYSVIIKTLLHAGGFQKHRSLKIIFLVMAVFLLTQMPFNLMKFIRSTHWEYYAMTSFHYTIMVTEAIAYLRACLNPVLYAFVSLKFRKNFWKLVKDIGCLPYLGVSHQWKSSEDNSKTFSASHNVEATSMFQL

IC50 | Structure (SMILES)
≤ 200 nM | CCOc1cc(NC(=O)C(O)C2C=CCC2)ccc1S(=O)(=O)Nc1cccc(OC(F)(F)F)c1 (stereo not shown) [Example 1.031]
2000 to 20000 nM | Cc1cc(NC(=O)N2CCOCC2)ccc1S(=O)(=O)Nc1cccc(C(F)(F)F)c1 [Example 1.148]
200 to 750 nM | CCOc1cc(NC(=O)C(COC)C(=O)O)ccc1S(=O)(=O)Nc1cccc(OC(F)(F)F)c1 (stereo not shown) [Example 1.127]
≤ 200 nM | CCOc1cc(NC(=O)[C@@H](O)[C@@H](C)CC)ccc1S(=O)(=O)Nc1ccc(F)c(OC(F)(F)F)c1 [Example 1.259]
750 to 2000 nM | COc1ccc(C(=O)Nc2ccc(S(=O)(=O)Nc3cccc(C(F)(F)F)c3)c(C)c2)cc1 [Example 1.136]
≤ 200 nM | CCOc1cc(NC(=O)[C@@H](N)c2ccccc2)ccc1S(=O)(=O)Nc1ccc(Cl)c(OC(F)(F)F)c1 [Example 1.234]
750 to 2000 nM | COc1cc(NC(=O)c2ccnn2C)ccc1S(=O)(=O)Nc1cc(Cl)cc(C(F)(F)F)c1 [Example 1.011]
750 to 2000 nM | Cn1nccc1C(=O)Nc1ccc(S(=O)(=O)Nc2cccc(C(F)(F)F)c2)c(OC(F)(F)F)c1 [Example 1.461]
2000 to 20000 nM | Cc1cc(NC(=O)[C@@H]2CCCN2C(=O)OC(C)(C)C)ccc1S(=O)(=O)Nc1cccc(C(F)(F)F)c1 [Example 1.012]
≤ 200 nM | CCOc1cc(NC(=O)C(CCO)c2ccccc2)ccc1S(=O)(=O)Nc1cccc(OC(F)(F)F)c1 (stereo not shown) [Example 1.047]
200 to 750 nM | CCOc1cc(NC(=O)CC(O)c2nccs2)ccc1S(=O)(=O)Nc1cccc(OC(F)(F)F)c1 (stereo not shown) [Example 1.485]
≤ 200 nM | CCOc1cc(NC(=O)[C@@H](NC(=O)C(F)(F)F)C(C)C)ccc1S(=O)(=O)Nc1cccc(OC(F)(F)F)c1 [Example 1.503]
750 to 2000 nM | CCOc1cc(NC(=O)C2CCCC(O)C2)ccc1S(=O)(=O)Nc1cccc(OC(F)(F)F)c1 (stereo not shown) [Example 1.545]
750 to 2000 nM | COc1cccc(NS(=O)(=O)c2ccc(NC(=O)c3ccnn3C)cc2OC)c1 [Example 1.348]
≤ 200 nM | CCOc1cc(NC(=O)C(O)c2cccc(C(F)(F)F)c2)ccc1S(=O)(=O)Nc1cccc(OC(F)(F)F)c1 (stereo not shown) [Example 1.327]
≤ 200 nM | CCOc1cc(NC(=O)C(CO)C2CCCCC2)ccc1S(=O)(=O)Nc1cccc(OC(F)(F)F)c1 (stereo not shown) [Example 1.113]
200 to 750 nM | COc1cc(NC(=O)C2=C(C)OCCC2)ccc1S(=O)(=O)Nc1cccc(OC(F)(F)F)c1 [Example 1.525]
750 to 2000 nM | CCOc1cc(NC(=O)[C@H]2CCCC[C@@H]2O)ccc1S(=O)(=O)Nc1cccc(OC(F)(F)F)c1 [Example 1.169]
2000 to 20000 nM | CCOc1cc(NC(=O)[C@@H](CO)C(C)C)ccc1S(=O)(=O)Nc1cccc(C(C)(C)O)c1 [Example 1.353]
≤ 200 nM | CCOc1cc(NC(=O)[C@@H](CO)c2ccccc2)ccc1S(=O)(=O)Nc1cccc(OC(F)(F)F)c1 [Example 1.536]
200 to 750 nM | CCOc1cc(NC(=O)[C@@H](CO)C(C)C)ccc1S(=O)(=O)Nc1ccc(C(F)(F)F)cc1 [Example 1.558]
2000 to 20000 nM | Cc1cc(NC(=O)C2CCN(C)CC2)ccc1S(=O)(=O)Nc1cccc(C(F)(F)F)c1 [Example 1.522]
200 to 750 nM | CCOc1cc(NC(=O)[C@H]2CCOC[C@H]2O)ccc1S(=O)(=O)Nc1cccc(OC(F)(F)F)c1 (racemic) [Example 1.107]
≤ 200 nM | CCOc1cc(NC(=O)C(O)c2ccc(F)cc2)ccc1S(=O)(=O)Nc1cccc(OC(F)(F)F)c1 (stereo not shown) [Example 1.452]
≤ 200 nM | CCOc1cc(NC(=O)[C@@H](N)c2ccccc2)ccc1S(=O)(=O)Nc1cccc(OC(F)(F)F)c1 [Example 1.086]
≤ 200 nM | CCOc1cc(NC(=O)[C@@H](O)C(C)C)ccc1S(=O)(=O)Nc1ccc(F)c(C2CC2)c1 [Example 1.211]

IC50 | Structure (SMILES)
2000 to 20000 nM | CCOc1cc(NC(=O)[C@@H](CO)c2ccccc2)ccc1S(=O)(=O)Nc1cccc(Cl)c1OC [Example 1.190]
2000 to 20000 nM | CCOc1cc(NC(=O)C2CCCNC2)ccc1S(=O)(=O)Nc1cccc(OC(F)(F)F)c1 (stereo not shown) [Example 1.030]
750 to 2000 nM | COc1cc(NC(=O)c2ccnn2C)ccc1S(=O)(=O)Nc1ccc(Cl)c(C(F)(F)F)c1 [Example 1.489]
≤ 200 nM | CCOC(=O)C(C(=O)Nc1ccc(S(=O)(=O)Nc2cccc(OC(F)(F)F)c2)c(OCC)c1)C1CCCC1 (stereo not shown) [Example 1.144]
≤ 200 nM | CCOc1cc(NC(=O)C(CC)C(=O)O)ccc1S(=O)(=O)Nc1cccc(OC(F)(F)F)c1 (stereo not shown) [Example 1.571]
750 to 2000 nM | CCOc1cc(NC(=O)CC(C)(C)O)ccc1S(=O)(=O)Nc1cccc(OC(F)(F)F)c1 [Example 1.166]
2000 to 20000 nM | CCOc1cc(NC(=O)[C@@H](CO)C(C)C)ccc1S(=O)(=O)Nc1ccc(CO)c(C(F)(F)F)c1 [Example 1.006]
≤ 200 nM | CCOc1cc(NC(=O)C(CC2CC=CCC2)C(=O)O)ccc1S(=O)(=O)Nc1cccc(OC(F)(F)F)c1 (stereo not shown) [Example 1.229]
2000 to 20000 nM | COc1cc(S(=O)(=O)Nc2cccc(C(F)(F)F)c2)c(C)cc1NC(C)=O [Example 1.354]
200 to 750 nM | CCOc1cc(NC(=O)[C@@H]2COC[C@@H]2O)ccc1S(=O)(=O)Nc1cccc(OC(F)(F)F)c1 (racemic) [Example 1.010]
750 to 2000 nM | Cc1cc(NC(=O)c2ccnn2C)cc(F)c1S(=O)(=O)Nc1cccc(C(F)(F)F)c1 [Example 1.520]
750 to 2000 nM | CCOc1cc(NC(=O)[C@H]2CC[C@](C)(O)CC2)ccc1S(=O)(=O)Nc1cccc(OC(F)(F)F)c1 [Example 1.227]
2000 to 20000 nM | CCOc1cc(NC(=O)[C@@H](CO)c2ccccc2)ccc1S(=O)(=O)Nc1cccc(Cl)c1C(F)(F)F [Example 1.350]
200 to 750 nM | CCOc1cc(NC(=O)c2cccc(=O)n2C)ccc1S(=O)(=O)Nc1cccc(OC(F)(F)F)c1 [Example 1.037]
≤ 200 nM | CCOc1cc(NC(=O)C(CNC(C)=O)c2ccccc2)ccc1S(=O)(=O)Nc1cccc(OC(F)(F)F)c1 (stereo not shown) [Example 1.386]
≤ 200 nM | CCOc1cc(NC(=O)[C@@H](O)c2ccccc2F)ccc1S(=O)(=O)Nc1cccc(OC(F)(F)F)c1 [Example 1.329]
2000 to 20000 nM | COc1cc(NC(=O)[C@@H]2CCCNC2)ccc1S(=O)(=O)Nc1cccc(C(F)(F)F)c1 [Example 1.471]
≤ 200 nM | CCOc1cc(NC(=O)C(CO)C(C)C)ccc1S(=O)(=O)Nc1cccc(OC(F)(F)F)c1 (stereo not shown) [Example 1.563]
750 to 2000 nM | CCOc1cc(NC(=O)C2CCN(C)C(=O)C2)ccc1S(=O)(=O)Nc1cccc(OC(F)(F)F)c1 (stereo not shown) [Example 1.316]
200 to 750 nM | CCOc1cc(NC(=O)CC(O)C2CCOCC2)ccc1S(=O)(=O)Nc1cccc(OC(F)(F)F)c1 (stereo not shown) [Example 1.401]
≤ 200 nM | C=Cc1cc(NS(=O)(=O)c2ccc(NC(=O)[C@@H](CO)c3ccccc3)cc2OCC)ccc1C [Example 1.372]
2000 to 20000 nM | CC(=O)Nc1cc(C)c(S(=O)(=O)Nc2cccc(OC(F)(F)F)c2)c(F)c1 [Example 1.444]
≤ 200 nM | CCOc1cc(NC(=O)C(O)C2C=CCCC2)ccc1S(=O)(=O)Nc1cccc(OC(F)(F)F)c1 (stereo not shown) [Example 1.246]
≤ 200 nM | CCOc1cc(NC(=O)C(C(=O)O)C2CCOC2)ccc1S(=O)(=O)Nc1cccc(OC(F)(F)F)c1 (stereo not shown) [Example 1.436]
2000 to 20000 nM | CCOc1cc(NC(=O)[C@@H](CO)c2ccccc2)ccc1S(=O)(=O)Nc1cccc(C(C)(C)O)c1 [Example 1.270]
≤ 200 nM | CCOc1cc(NC(=O)c2ccn(C)c(=O)c2C)ccc1S(=O)(=O)Nc1cccc(OC(F)(F)F)c1 [Example 1.332]
